From article PMC10354055, “An optimized Nurr1 agonist provides disease-modifying effects in Parkinson’s disease models” (Nature Communications, 2023)
“And” between values parts separate entries of the source, which are not always exact repeats. Equal values may be shown once.

What was measured:
Format in all cases: cell-based
HeLa cells [1] = test: Autophagic flux, Western blot LC3B and p62, HeLa cells; conditions: for Relative p62 expression (normalized to β-actin): Supplementary Figure S7j
Method: Experiments were confirmed by duplicate measurements of the same sample. Quantification of immunoreactive bands was performed using ImageJ software (NIH, Bethesda, MD, USA) and expressed as a relative ratio against β-actin.
The band intensities were quantified using ImageJ and normalized against β-actin.

HeLa cells [2] = test: Lysosomal pH detection, LysoSensor, HeLa cells; conditions: Supplementary Figure S7d; individual replicates
Method: Lysosomal pH was detected as previously described. Briefly, after incubation in EBSS containing BafA1 (10 nM), CQ (20 µM), or 4A7C-301 (1 µM) for 6 h, HeLa and N27-A cells were treated with LysoSensor™ Yellow/Blue DND-160 (5 µM; Life Technology) for 45 min, followed by 2 washes in HEPES buffer (Gibco). Fluorescence images at excitation/emission wavelengths of 360/460 nm and 470/525 nm were taken immediately using a 400 nm dichroic mirror (KEYENCE). The ratio of fluorescence intensities (F360/470) were measured and calculated manually using ImageJ for each cell. The average pH from measuring 5 cells from each of three wells for each treatment group in both HeLa and N27-A cells was calculated by fitting the F360/470 values to a plotted pH calibration curve with KCl/NaCl buffered from pH 3.5 to 7.0 using GraphPad Prism (Version 8.0.2).

[3] = system: mouse ventral mesencephalic (VM) primary cells; test: Dopaminergic gene expression, qRT-PCR, primary VM cells with 6-OHDA
Method: Total RNA was extracted using the GeneJET RNA Purification Kit (Thermo Fisher Scientific) and 100 ng of RNA was subjected to cDNA synthesis using Invitrogen Superscript cDNA Synthesis Kit (Invitrogen) according to the manufacturer’s protocol. qRT-PCR was performed using a CFX Connect Real-Time System (Bio-Rad) in a 20 μl volume mixture containing 2X SsoAdvanced Universal SYBR Green Supermix (Bio-Rad), 100 ng/μl of forward and reverse primers, and 1 μl of cDNA sample. Gene expression levels were quantified by the 2^∆∆CT method (Ct of target gene—Ct of glyceraldehyde-3-phosphate dehydrogenase (GAPDH). The following primers were used for qRT-PCR: TH forward: 5′-[…]-3′, reverse: 5′-[…]-3′; DAT forward: 5′-[…]-3′, reverse: 5′-[…]-3′; AADC forward: 5′-[…]-3′, reverse: 5′-[…]-3′; VMAT2 forward: 5′-[…]-3′, reverse: 5′-[…]-3′; c-Ret forward: 5′-[…]-3′, reverse: 5′-[…]-3′; TNFα forward: 5′-[…]-3′; reverse: 5′-[…]-3′; GAPDH, forward 5′-[…]-3′, reverse 5′-[…]-3′.
Briefly, dissected VM brain tissues were collected in ice-cold Dulbecco’s phosphate-buffered saline (DPBS) and then mechanically dissociated using pipettes. Thereafter, dissociated tissues were incubated in 0.05 % Trypsin-EDTA (Invitrogen) for 5 min at 37 °C. The cell suspension was plated onto glass coverslips in 48-well plates pre-coated with […] poly-L-ornithine, 5 μg/ml Fibronectin or 1 μg/ml Laminin at a density of 2.0 × 10^5 cells/cm^2 in differentiation medium (1% heat-inactivated FBS, 2 mM L-glutamine, 50X B27 supplement, 100 μM ascorbic acid and 2 μg/ml bFGF in Neurobasal media).

SMILES: CCN1CCN(c2cc(N3CCN(CC)CC3)nc(NCCNc3ccnc4cc(Cl)ccc34)n2)CC1 [4A7C-301, N^1-(4,6-bis(4-ethylpiperazin-1-yl)pyrimidin-2-yl)-N^2-(7-chloroquinolin-4-yl)ethane-1,2-diamine]
- Relative LC3B-II expression (normalized to β-actin) (HeLa cells [1]; Supplementary Figure S7i, Conc. 10 µM): 0.4913 and 0.4289 and 0.4955
- Relative p62 expression (normalized to β-actin) (HeLa cells [1]; Conc. 1 µM): 0.2532 and 0.2036 and 0.1875
- Relative p62 expression (normalized to β-actin) (HeLa cells [1]; Conc. 10 µM): 0.2002 and 0.2111 and 0.1727
- Lysosomal pH (HeLa cells [2]): 4.318 and 4.4486 and 4.774 and 4.612 and 4.807 and 4.905 and 4.677 and 3.797 and 4.742 and 4.872 and 3.764 and 3.96 and 3.927 and 3.536
- Relative mRNA levels (fold of Control), AADC ([3]; Fig. S5f/S5g, with 6-OHDA): 1.28 fold of Control and 1.13 fold of Control and 1.203 fold of Control
- Relative mRNA levels (fold of Control), DAT ([3]; Fig. S5f/S5g, with 6-OHDA): 1.197 fold of Control and 1.193 fold of Control and 1.282 fold of Control
- Relative mRNA levels (fold of Control), TH ([3]; Fig. S5f/S5g, with 6-OHDA): 0.9704 fold of Control and 1 fold of Control and 1.046 fold of Control
- Relative mRNA levels (fold of Control), VMAT2 ([3]; Fig. S5f/S5g, with 6-OHDA): 0.9594 fold of Control and 0.8951 fold of Control and 0.9343 fold of Control
- Relative mRNA levels (fold of Control), c-Ret ([3]; Fig. S5f/S5g, with 6-OHDA): 0.9509 fold of Control and 0.8338 fold of Control and 0.9285 fold of Control
- Relative mRNA levels (fold of Control), AADC ([3]; Fig. S5f/S5g, without 6-OHDA): 1.446 fold of Control and 1.683 fold of Control and 1.592 fold of Control
- Relative mRNA levels (fold of Control), DAT ([3]; Fig. S5f/S5g, without 6-OHDA): 2.907 fold of Control and 2.949 fold of Control and 3.159 fold of Control
- Relative mRNA levels (fold of Control), TH ([3]; Fig. S5f/S5g, without 6-OHDA): 2.273 fold of Control and 2.094 fold of Control and 2.264 fold of Control
- Relative mRNA levels (fold of Control), VMAT2 ([3]; Fig. S5f/S5g, without 6-OHDA): 1.573 fold of Control and 1.37 fold of Control and 1.5834 fold of Control
- Relative mRNA levels (fold of Control), c-Ret ([3]; Fig. S5f/S5g, without 6-OHDA): 1.652 fold of Control and 1.7584 fold of Control and 1.7573 fold of Control
- Relative mRNA levels (fold of Control), AADC ([3]; Fig. S5h/S5i, with 6-OHDA): 0.268 fold of Control and 0.3023 fold of Control and 0.2821 fold of Control
- Relative mRNA levels (fold of Control), DAT ([3]; Fig. S5h/S5i, with 6-OHDA): 0.1919 fold of Control and 0.1982 fold of Control and 0.2381 fold of Control
- Relative mRNA levels (fold of Control), TH ([3]; Fig. S5h/S5i, with 6-OHDA): 0.3682 fold of Control and 0.3362 fold of Control and 0.3267 fold of Control
- Relative mRNA levels (fold of Control), VMAT2 ([3]; Fig. S5h/S5i, with 6-OHDA): 0.2168 fold of Control and 0.2497 fold of Control and 0.2445 fold of Control
- Relative mRNA levels (fold of Control), c-Ret ([3]; Fig. S5h/S5i, with 6-OHDA): 0.2351 fold of Control and 0.2454 fold of Control and 0.2588 fold of Control
- Relative mRNA levels (fold of Control), AADC ([3]; Fig. S5h/S5i, without 6-OHDA): 0.385 fold of Control and 0.3813 fold of Control and 0.3915 fold of Control
- Relative mRNA levels (fold of Control), DAT ([3]; Fig. S5h/S5i, without 6-OHDA): 0.3184 fold of Control and 0.317 fold of Control and 0.3059 fold of Control
- Relative mRNA levels (fold of Control), TH ([3]; Fig. S5h/S5i, without 6-OHDA): 0.5668 fold of Control and 0.4913 fold of Control and 0.5193 fold of Control
- Relative mRNA levels (fold of Control), VMAT2 ([3]; Fig. S5h/S5i, without 6-OHDA): 0.4847 fold of Control and 0.4471 fold of Control and 0.4495 fold of Control
- Relative mRNA levels (fold of Control), c-Ret ([3]; Fig. S5h/S5i, without 6-OHDA): 0.4648 fold of Control and 0.44 fold of Control and 0.4811 fold of Control
- dopaminergic gene expression (in words) ([3]; VM primary cells, decreased by 6-OHDA, CQ 20 µM, 4A7C-301 0.5 µM): significantly rescued
